{"source": "patent US20040086471A1", "about": "“Compositions for darkening the skin and/or hair” (priority 2002, published 2004)", "key": {"[1]": {"system": "Type IV pigmented epidermal equivalents (human melanocytes and keratinocytes); tyrosinase activity / melanin deposition", "assay": "Pigmentation in pigmented epidermal equivalents (DOPA and F&M staining)", "format": "cell-based", "conditions": "for Overall Score (change of pigmentation by DOPA and F&M staining) / Score DOPA staining (tyrosinase activity) / Score F&M staining (Pigment deposition): 0.1% (w/v) in PBS, treated three or five days, type IV epidermal equivalents", "method": "Copper PCA (Barnet Products Corp., Englewood cliffs, N.J.) was tested for its ability to induce pigmentation in pigmented epidermal equivalents. The pigmented epidermal equivalents contained human normal melanocytes, together with normal, human-derived epidermal keratinocytes, which have been cultured to form a multi-layered, highly differentiated model of the human epidermis. Type IV pigmented epidermal equivalents (consisting of normal human keratinocytes pooled from variety of phototype skins and normal human melanocytes derived from type IV phototype skin) were treated with test compounds for three or five days and samples were harvested on the fourth or sixth day of the study. The harvested equivalents were stained with DOPA (a substrate for tyrosinase) or with Fontana-Mason (F&M) (Sheenan DC, Hrapckak BB, eds: Theory and practice of Histo-Thchnology (St Louis: CV Mosby, 1980) pp 223-277). F&M staining identifies silver nitrate reducing activity, which, in skin, identifies melanin.\nThe epidermal equivalents used were SkinEthic® reconstructed human epidermis from SkinEthic™ Laboratory (Nice, France). UV irradiation was performed with a UVB FS light source in an exposure chamber, with plate covers removed and Phosphate-buffered saline (PBS, from Gibco-BRL, Gaithersburg, Md.) present in the lower chamber. UVB intensity was measured with a UVX radiometer (UVP Inc., San Gabriel, Ca.). Equivalents were treated with 0.1-0.12 J/cm2. […] The copper PCA and tyrosine were dissolved in PBS.\nOn the fourth or sixth day of the study, the equivalents were fixed, sectioned and F&M stained, or they were DOPA stained as whole without sectioning, using standard techniques. At least three sections per equivalent, three equivalents per experiment were processed. Each experiment was repeated three times. DOPA-stained epidermal equivalents were evaluated for the change in tyrosinase activity. F&M-stained histological sections were evaluated for the change in pigment deposition. Due to the low content of melanin within the type IV epidermal equivalent, it was not possible to quantify the level of pigment within melanocytes in F&M stained sections by image analysis. Therefore, the pigment change was evaluated using the scale defined below in Table 1.\nTable 2 represents the overall score in change of pigmentation, as evaluated by DOPA and F&M staining, as set forth above, when equivalents were exposed to Copper PCA (0.1% (w/v)) and/or tyrosine (0.1% (w/v)) or UVB irradiation (0.10J/cm^2)."}, "[2]": {"system": "skin of Yucatan microswine", "assay": "Pigment deposition in swine skin in vivo (F&M histology of biopsies)", "conditions": "for pigment deposition in swine skin (in words): topical, in vivo, histological analysis", "excerpt": "Dark skinned Yucatan microswine (Charles River, Portland, Me.) were housed in appropriately sized cages in an environmentally controlled room with a 12-hour light—12-hour dark photoperiod and supplied with food and water ad libi tum. Twenty μl of test materials were applied topically, twice a day, five days/week, for eight or nine weeks, on the dorsum of the swine. Treatments of individual swine were always arranged in a head to tail order on one side, and in a tail to head order on the other side of the animal. Biopsies were taken using standard techniques.\nSwine were treated with either 0.5% w(w/v) of the copper PCA and/or tyrosine or ultraviolet-B radiation (as a positive control). The copper PCA and tyrosine were dissolved in ethanol: propylene glycol 70:30 (v/v). A […] erythema dose (MED) of UVB was determined by placing a plastic template with 1×1 inch^2 cutouts on the dorsum of the swine. Using a UVB lamp (Model UVM-57, 302 nm lamp, UVP Inc., Upland, Calif.) placed on the template, sites were exposed to UVB with increasing time points, every other day for five days. Unexposed sites were covered with the same material as the template. One MED was established as the dose that produces the least amount of visible erythema. Swine were exposed to one MED, once per day, on three alternate days (Mon, Wed, Fri).\nFollowing eight weeks of treatment, skin biopsies were taken using standard methods, for pigment deposition analysis. Sections from the skin biopsies were stained with Hematoxylin and Eosin (H&E), or with Fontana-Mason (F&M), using standard procedures (Sheenan DC, Hrapckak BB, eds., Theory and Practice of Histo-Technology (The C. V. Mosby Co., St. Louis (1980) pp. 223-277). At least three sections per biopsy were processed. Each experiment was repeated at least two times.\nTable 4 represents the average value of all sites of responsive swine treated with each test material. The scale for evaluation is defined in Table 3."}}}
{"smiles": "O=C1CC[C@@H](C(=O)[O-])N1.O=C1CC[C@@H](C(=O)[O-])N1.[Cu+2]", "note": "[Copper PCA]", "values": [{"measurement": "Overall Score (change of pigmentation by DOPA and F&M staining)", "setting": "[1]", "value": "1-2"}, {"measurement": "Score DOPA staining (tyrosinase activity)", "setting": "[1]", "value": "1-2"}, {"measurement": "Score F&M staining (Pigment deposition)", "setting": "[1]", "value": "1-2"}, {"measurement": "tyrosinase activity in human pigmented epidermal equivalents (in words)", "setting": "[1]; in vitro", "value": "significantly increases"}, {"measurement": "Score (pigment deposition, capped epidermal cells)", "setting": "[2]; 0.5% (w/v) topical, twice a day, five days/week, eight weeks, average of all sites of responsive swine", "value": "2-3"}, {"measurement": "pigment deposition in swine skin (in words)", "setting": "[2]", "value": "enhanced pigment deposition"}, {"measurement": "pigment deposition in swine skin (in words)", "setting": "[2]; listed as copper PCA", "value": "significantly increases"}]}
{"smiles": "N[C@@H](Cc1ccc(O)cc1)C(=O)O", "note": "[Tyrosine, tyrosine]", "values": [{"measurement": "Overall Score (change of pigmentation by DOPA and F&M staining)", "setting": "[1]", "value": "0-2"}, {"measurement": "Score DOPA staining (tyrosinase activity)", "setting": "[1]", "value": "1-2"}, {"measurement": "Score F&M staining (Pigment deposition)", "setting": "[1]", "value": "0-1"}]}
